{"source": "patent US20030220482A1", "about": "“Novel peptide antagonist of CXCR4 derived from the N-terminus of the viral chemokine vMIP-II” (priority 2000, published 2003)", "key": {"CXCR4 [1]": {"biological_target": "T1, CXCR4 (Homo sapiens, UniProt P61073)", "T1 sequence (P61073 whole entry)": "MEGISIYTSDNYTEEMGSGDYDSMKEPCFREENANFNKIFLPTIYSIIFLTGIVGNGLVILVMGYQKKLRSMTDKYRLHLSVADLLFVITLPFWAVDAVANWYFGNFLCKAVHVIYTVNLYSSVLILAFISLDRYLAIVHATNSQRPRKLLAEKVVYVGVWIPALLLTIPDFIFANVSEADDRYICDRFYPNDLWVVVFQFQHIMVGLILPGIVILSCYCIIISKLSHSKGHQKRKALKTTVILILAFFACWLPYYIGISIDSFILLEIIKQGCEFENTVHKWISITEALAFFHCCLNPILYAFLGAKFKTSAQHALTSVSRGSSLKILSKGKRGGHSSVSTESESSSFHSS", "experiment": "125I-SDF-1α competitive binding to CXCR4 (CEM-T4 cells)", "parameters": "endogenous in cells; host or cells: CEM-T4 cells", "conditions": "for CXCR4 binding (in words): 125I-SDF-1α competitive binding, FIG. 1", "procedure": "^125I-SDF-1α Competitive Binding to CXCR4\nCEM-T4 cells were harvested and washed twice with PBS. […] Nonspecific binding was determined by the addition of 100 nM unlabeled SDF-1α Samples were incubated for 60 min at room temperature. The incubation was terminated by separating the cells from the binding buffer by centrifugation and washing once with 500 μl of cold binding buffer. Bound ligands were quantitated by counting γ emissions."}, "CXCR4 [2]": {"biological_target": "T1, CXCR4", "experiment": "CXCR4 internalization", "format": "cell-based", "parameters": "CEM-T4 cells were harvested and washed twice with PBS; endogenous in cells; host or cells: CEM-T4 cells"}, "CCR5 [3]": {"biological_target": "T2, CCR5 (Homo sapiens, UniProt P51681)", "T2 construct": "expressed in transfected cells; host or cells: 293 cells", "T2 sequence (P51681 whole entry)": "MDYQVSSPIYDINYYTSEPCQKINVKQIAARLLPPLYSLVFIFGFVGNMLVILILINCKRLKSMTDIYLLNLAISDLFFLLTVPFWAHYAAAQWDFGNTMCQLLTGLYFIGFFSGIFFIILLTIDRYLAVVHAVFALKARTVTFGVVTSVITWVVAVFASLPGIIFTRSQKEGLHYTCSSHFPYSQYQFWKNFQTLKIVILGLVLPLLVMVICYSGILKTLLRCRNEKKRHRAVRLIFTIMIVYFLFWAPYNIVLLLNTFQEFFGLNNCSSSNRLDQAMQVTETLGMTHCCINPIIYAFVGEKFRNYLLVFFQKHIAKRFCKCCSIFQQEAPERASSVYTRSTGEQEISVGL", "experiment": "Intracellular calcium influx in CCR5 transfected 293 cells", "format": "cell-based", "procedure": "(§1) Sup T1 cells and CCR5 transfected 293 cells were used to measure the intracellular calcium influx. [Ca^2+]i was measured using excitation at 340 and 380 nm on a fluorescence spectrometer (Perkin Elmer LS50). Calibration was performed using 10% Triton X-100 for total fluorophore release and 0.5 M EGTA to chelate free Ca^2+. Intracellular Ca^2+ concentrations were calculated by using the fluorescence spectrometer measurement program."}, "CXCR4 [4]": {"biological_target": "T1, CXCR4", "experiment": "anti-CXCR4 mAb 12G5 competitive binding (flow cytometry, Sup T1 cells)", "parameters": "endogenous in cells", "conditions": "relative to SDF-1", "procedure": "Sup T1 cells (2×10^5) were washed with FACS buffer (0.5% bovine serum albumin, 0.05% sodium azide in PBS) and incubated with an anti-CXCR4 monoclonal antibody (mAb) 12G5 (10 μg/ml) for 30 min at 4° C. After washing with FACS buffer, cells were incubated with 10 μg FITC conjugated goat anti-mouse IgG (Southern Biotechnology Associates, Inc. Birmingham, Ala.) for 30 min at 4° C. After washing twice with FACS buffer, cells were fixed in the fixing buffer (2% palaformaldehyde in PBS) and then analyzed on a FACScan flow cytometer (Coulter EPICS Elite, Coolten Corp., Hialeah, Fla.)."}, "CCR5 [5]": {"biological_target": "T2, CCR5", "experiment": "125I-MIP-1β competitive binding to CCR5 (CCR5-transfected 293 cells)", "conditions": "competitive binding with radiolabeled MIP-1β", "text": "^125I-MIP-1β Competitive Binding to CCR5\nFollowing a similar experimental procedure as described above, 293 cells transfected with CCR5 and ^125I-MIP-1β were used to determine the specific binding activity of peptides to CCR5."}, "Sup T1 cells": {"test_system": "Sup T1 cells", "experiment": "Chemotaxis of Sup T1 cells induced by SDF-1", "format": "cell-based", "procedure": "Migration of Sup T1 cells was assessed in disposable Transwell trays (Costar, Cambridge, Mass.) with 6.5 -mm diameter chambers and membrane pore size of […]. […] For peptide inhibition experiments, the cells were preincubated with various concentrations of the peptide for 15 min at 25° C. The peptide at the same concentration was also added to the lower well. After incubation at 37° C. and 5% CO2 for 4 h, cells that migrated to the lower well were counted. Chemotactic migration was determined by subtraction of cells migrated in medium alone (Blank control experiment)."}, "CCR5 [6]": {"biological_target": "T2, CCR5", "experiment": "Gene reporter cell-cell fusion assay, HIV-1 coreceptor function of CCR5", "format": "cell-based"}, "CXCR4 [7]": {"biological_target": "T1, CXCR4", "experiment": "Intracellular calcium influx in Sup T1 cells", "format": "cell-based", "parameters": "endogenous in cells", "procedure": "as §1"}, "CXCR4 [8]": {"biological_target": "T1, CXCR4", "experiment": "Gene reporter cell-cell fusion assay, HIV-1 coreceptor function of CXCR4", "format": "cell-based", "parameters": "expressed in transfected cells; host or cells: NIH/3T3 cells", "conditions": "for inhibition of T- and dual-tropic HIV-1 gp120-mediated cell-cell fusion via CXCR4 (in words): vSC60 (BH10) T-tropic and 89.6 dual-tropic isolates"}}, "note": "“Also recorded” adds a separate entry of the source. Peptide text beside a SMILES is read from it.", "data": [{"compound": "LGASWHRPDK (v-MIPII derived peptide) [V3, VMIP-II, 1-10]", "values": [{"measurement": "CXCR4 binding (in words)", "setting": "CXCR4 [1]", "value": "retained some activity"}]}, {"compound": "CC(C)C[C@H](NC(=O)[C@H](CS)NC(=O)[C@H](CS)NC(=O)[C@H](CCCCN)NC(=O)[C@H](CC(=O)O)NC(=O)[C@@H]1CCCN1C(=O)[C@H](CCCNC(=N)N)NC(=O)[C@H](Cc1c[nH]cn1)NC(=O)[C@H](Cc1c[nH]c2ccccc12)NC(=O)[C@H](CO)NC(=O)[C@H](C)NC(=O)CNC(=O)[C@@H](N)CC(C)C)C(=O)NCC(=O)N[C@@H](Cc1ccc(O)cc1)C(=O)N[C@@H](CCC(N)=O)C(=O)N[C@@H](CCCCN)C(=O)N[C@@H](CCCNC(=N)N)C(=O)N1CCC[C@H]1C(=O)N[C@@H](CC(C)C)C(=O)N1CCC[C@H]1C(N)=O", "note": "[V1] (H-LGASWHRPDKCCLGYQKRPLP-NH2; N-terminus and C-terminus assumed)", "values": [{"measurement": "induction of CXCR4 internalization (in words)", "setting": "CXCR4 [2]", "value": "induction of CXCR4 internalization"}, {"measurement": "fold less potent than SDF-1, 125I-SDF-1α competition", "setting": "CXCR4 [1]; relative to SDF-1", "value": "~70", "unit": "fold"}, {"measurement": "signaling activity via CCR5 (calcium influx, in words)", "setting": "CCR5 [3]", "value": "neither displayed signaling activity"}, {"measurement": "blocking of signal induced by MIP-1β via CCR5 (in words)", "setting": "CCR5 [3]; MIP-1β 100 nM", "value": "nor blocked the signal"}, {"measurement": "fold less potent than SDF-1, mAb 12G5 competition", "setting": "CXCR4 [4]", "value": "about 33 fold"}, {"measurement": "CCR5 binding (in words)", "setting": "CCR5 [5]", "value": "did not display any interaction"}, {"measurement": "inhibition of chemotactic activity of SDF-1 (in words)", "setting": "Sup T1 cells", "value": "inhibit the chemotactic activity of SDF-1 in a concentration dependent manner"}, {"measurement": "effect on M-tropic HIV-1 gp120-mediated cell-cell fusion via CCR5 (in words)", "setting": "CCR5 [6]", "value": "displayed no effect"}, {"measurement": "blocking of SDF-1 signal (calcium influx, in words)", "setting": "CXCR4 [7]; peptide 200 μM, SDF-1 100 nM", "value": "almost completely blocked SDF-1 signal"}, {"measurement": "signaling activity via CXCR4 (calcium influx, in words)", "setting": "CXCR4 [7]; various concentrations", "value": "did not show any signaling activity"}, {"measurement": "inhibition of T- and dual-tropic HIV-1 gp120-mediated cell-cell fusion via CXCR4 (in words)", "setting": "CXCR4 [8]", "value": "showed inhibition"}]}, {"compound": "HRPDKCCLGYQKR (v-MIPII derived peptide) [V2, VMIP-II, 6-18]", "values": [{"measurement": "CXCR4 binding (in words)", "setting": "CXCR4 [1]", "value": "significant loss in CXCR4 binding; also recorded: does not bind"}, {"measurement": "effect on CCR5 signal transduction (in words)", "setting": "CCR5 [3]", "value": "did not show any effect"}, {"measurement": "CCR5 binding (in words)", "setting": "CCR5 [5]", "value": "does not bind"}, {"measurement": "effect on M-tropic HIV-1 gp120-mediated cell-cell fusion via CCR5 (in words)", "setting": "CCR5 [6]", "value": "displayed no effect"}, {"measurement": "effect on CXCR4 signal transduction (in words)", "setting": "CXCR4 [7]", "value": "did not show any effect"}, {"measurement": "inhibition of T- and dual-tropic HIV-1 gp120-mediated cell-cell fusion via CXCR4 (in words)", "setting": "CXCR4 [8]", "value": "did not show any activity"}]}, {"compound": "SDF-1: Recombinant human chemokine, Stromal cell Derived Factor-1, a natural CXCR4 ligand, used as control [reference compound]", "values": [{"measurement": "inhibition of cell-cell fusion", "setting": "CXCR4 [8]; at 200 nM", "value": 45, "unit": "%"}]}]}
